Assay results as given in patent EP0774455A1, “Excitatory amino acid receptor antagonists” (ELI LILLY AND COMPANY, priority 1995, dated 1997).
Values belong to the compound of their own block, whether it stands above or below them.

Experiments:
[1] = tested on: metabotropic glutamate receptors; test: selective displacement of 1S,3R-ACPD-sensitive [3H]glutamate binding to rat brain cell membranes (crude membranes of rat forebrain)
Experimental: The binding of [^3H]glutamate was conducted with crude membranes of rat forebrain as described by Schoepp and True. Schoepp and True, Neuroscience Lett., 145, 100-104 (1992) and Wright et al., J. Neurochemisty 63: 938-945 (1994).

[2] = tested on: mouse; test: mouse elevated plus maze model; type: in vivo
[3] = tested on: mouse; test: mouse conditioned active avoidance response model; type: in vivo
From the text: (Pfeiffer & Jenney, Ann. N.Y. Acad. Sci., 66:[…], 1957; Maffii, J. Pharm. Pharmacol., 11: 129-139, 1959; Cook & Weidley, Ann; N.Y. Acad. Sci., 66: […], 1957; Janke, Handbook of Experimental Pharmacology, Vol. 55/I, New York: Plenum Press, 1978).

IC50 [1]: 320 nM
SMILES: NC1(C(=O)O)C(CCCc2ccccc2)CC2C(C(=O)O)C21 (stereo not drawn) [Example 1, Mixture of 1SR,2SR,3RS,5RS,6SR-2-amino-3-(3-phenylpropyl)bicyclo[3.1.0]-hexane-2,6-dicarboxylic acid and 1SR, 2RS, 3RS, 5RS, 6SR-2-amino-3-(3-phenylpropyl)bicyclo[3.1.0]hexane-2,6-dicarboxylic acid]

SMILES: Cc1cccc(C[C@@H]2C[C@H]3[C@H](C(=O)O)[C@H]3[C@]2(N)C(=O)O)c1 (racemic) [Example 4, 1SR,2SR,3SR,5RS,6SR-Amino-3-((3-methyl)benzyl)bicyclo[3.1.0]hexane-2,6-dicarboxylic acid]
anxiolytic effect [2]: anxiolytic effect

SMILES: N[C@@]1(C(=O)O)[C@H](Cc2ccc(F)c(F)c2F)C[C@H]2[C@H](C(=O)O)[C@H]21 (racemic) [Example 25, 1SR,2SR,3SR,5RS,6SR-2-Amino-3-((2,3,4-trifluoro)-benzyl)bicyclo[3.1.0]hexane-2,6-dicarboxylic acid]
neuroleptic properties [3]: neuroleptic properties
